From PMC8274846, “Biogenic nanoporous silicon carrier improves the efficacy of buparvaquone against resistant visceral leishmaniasis” (PLoS Neglected Tropical Diseases, 2021)
Several values for one entry are separate records, joined by “and”; a condition that tells them apart may be missing. Identical values can stand only once. Like-named read-outs stand apart in the source and are kept apart here.

What was measured:
[1] = test system: intracellular L.donovani amastigotes, wild-type AG83, in macrophages; test: Antileishmanial activity against intracellular amastigotes, wild-type AG83; format: cell-based; details: for IC50: Leishmania donovani, Macrophage
Description: (§1) The intracellular antileishmanial activity was evaluated based on the reduction in the amastigote numbers in the infected macrophages after the treatment. The method was adapted from our previous work. Briefly, 4x10^6 amastigotes in 500 μL of RPMI-1640 suspension were added to each well containing macrophages with the macrophage: parasite ratio of 1:10. The plates were incubated for 4 h at 37°C in 5% CO2. After the parasite internalization period, cells were washed at least twice with fresh media to remove non-phagocytosed parasites. Then, the drug specimen suspended in 1 mL RPMI-1640 was added, and the samples were incubated for 72 h at 37°C in 5% CO2. The medium was aspirated, the coverslips were removed, and then fixed with methanol and air-dried. After staining with Giemsa, 100 cells on the glass discs were counted. Three independent experiments in quadruplicate for each concentration were performed.
(§2) Microscopic examinations were performed in duplicates with various concentrations of pure drugs or buparvaquone-loaded nanoparticles and also for control wells. The amastigotes cells were counted for all cases using a hemocytometer. The mean of the control wells was considered as 100% survival. The counts in the treated wells at various concentrations were converted into percentages. Giemsa-stained slides of the macrophages infected with amastigotes were observed under a light microscope. Then the numbers of amastigotes and infected macrophages per 100 cells were counted for each slide. The percentage (%) of inhibition was calculated by using the equation %ofinhibition=C−T/C×100, (2) where C is the number of amastigotes/infected macrophages per 100 cells in the control well and T is the number of amastigotes/infected macrophages per 100 cells in the drug-treated well.
(§3) Origin version 6.1 software was used to calculate IC50 and CC50 values by plotting a graph of the percentage of inhibition at various concentrations of all the observations.

[2] = test system: axenic L.donovani amastigotes, GE1 (isolated strain resistant to SSG); test: Antileishmanial activity against axenic amastigotes, GE1; format: cell-based
Description: L. donovani AG83 (MHOM/IN/83/AG83) and GE1 (MHOM/IN/80/GE1F8R) promastigotes were routinely grown in medium 199 supplemented with 10% heat-inactivated fetal bovine serum, 2 mM L-glutamine, 20 mM HEPES, 100 U/mL penicillin, and 100 μg/mL streptomycin at 25°C. L. donovani amastigote forms were grown and maintained as described previously. Axenic amastigote forms were derived from promastigote forms by culturing them in MMA/20 (medium for axenic amastigote) at pH 5.5 [22]. Axenically grown amastigotes were maintained by sub-culture of 10^5 parasites/ml repeated every fifth day under experimental conditions of 37°C temperature and 5% CO2 environment.
The antileishmanial activity of the drug specimens (BPQ+NP, BPQ, SSG, AmB, PMM, and MF) against the axenic amastigotes were evaluated based on the IC50 value, which is the concentration of the specimen required to kill 50% of the parasites. The parasites were first seeded into 96-well plates at a density of 1x10^5 amastigotes/well in 200 μL medium. Then, 10 μL of the drug candidates at various concentrations were added and the final volume was adjusted to […] medium. The number of amastigotes in the wells treated with each specimen were compared to those in the untreated control wells.
as §2, §3

[3] = test system: L. infantum infection; set-up: method as in earlier work; details: against L. infantum infection; ref 32 (Reimao et al.); cited from earlier work
[4] = test system: wild-type AG83 L. donovani amastigotes in spleen; test: Leishman-Donovan Unit (LDU) assay in infected mice; format: in vivo, BALB/c mice
Description: Spleen smears were stained with Giemsa to confirm infection. The infected animals were divided into three groups consisting 4-5 animals per group. The groups were classified as the infected control group, BPQ treated group and BPQ+NP treated group. […] The infected control group was injected an equal volume of PBS during the entire dosing period. […] After that spleen impression smears were prepared on glass slides and stained with Giemsa to analyze infected visceral organ (spleen) microscopically. The parasite burdens were determined by evaluating the LDU values, which were calculated by multiplying the number of amastigotes counted per 500 nuclei with the spleen weight in mg.

[5] = test system: peritoneal macrophages; set-up: method as in earlier work; details: ref 32 (Reimao et al.); cited from earlier work
[6] = test system: wild-type L. donovani AG83 amastigotes in spleen; test: Culture microtitration assay (CMA) in infected mice; format: in vivo, BALB/c mice; details: for Spleen: 7 days post-treatment, n = 5; for Suppression (%) of L. donovani amastigote burden in spleen: CMA method, 2 mg/kg
Description: The infected control group was injected with 0.2 mL of sterile water during the entire dosing period. Seven days post-treatment, the animals were sacrificed, and their spleens were aseptically removed and weighed for determination of amastigote burden by microtitration assay as described elsewhere. Wells were examined for viable and motile promastigotes. The final titer was the last dilution for which the well contained at least one parasite. […] (5) .

[7] = test system: intracellular L.donovani amastigotes, GE1, in macrophages; test: Antileishmanial activity against intracellular amastigotes, GE1; format: cell-based
Description: as §1, §2, §3

[8] = 2 doses of 2 mg/kg i.p. at 5 days interval
[9] = 4 doses of 2 mg/kg i.p. at 5 days interval

## CC(C)(C)[C@H]1CC[C@H](CC2=C(O)C(=O)c3ccccc3C2=O)CC1 [BPQ, Buparvaquone]
[1]; AG83
  Fold larger cellular IC50 of pure BPQ than BPQ+NP: 3 fold
[1]; CC50/IC50, intracellular
  Selectivity index (SI), AG83: 120 ± 10
[1]; cellular model, range over all four L. donovani strains (Table 3), read-out: Cellular IC50, range over the strains
  IC50: 2 to 5 µM
[1]; intracellular amastigotes, 72 h, mean ± σ, n = 4, read-out: Cellular IC50, Wild-type AG83
  IC50: 2.9 ± 0.3 µM
[2]; GE1
  Fold higher axenic IC50 of pure BPQ than BPQ+NP: 4 fold
[2]; IC50 against drug resistant strain / IC50 against wild-type strain (AG83), axenic
  Resistance index (RI), GE1: 1.2 ± 1.4
[2]; Leishmania donovani, axenic amastigotes, mean ± σ, n = 4
  IC50: 4.1 ± 0.8 µM
[3]
  IC50: 1.5 µM
[4]; 1 mg/kg i.p. for 5 consecutive days
  Fold reduction of amastigote burden in spleen compared with the control group: 20 fold
[4]; infected BALB/c mice, 1 mg/kg i.p. for 5 consecutive days, day 7 post-treatment, n = 5
  Spleen wt.: 100 ± 10 mg
[4]; spleen of infected mice, intraperitoneal, corresponding doses
  Suppression / inhibition of parasite burden in vivo (summary statement): 50%
[4]; spleen, 1 mg/kg i.p. for 5 consecutive days
  LDU (Leishman Donovan Unit = number of amastigotes per 500 nuclei × spleen weight in mg): 2 ± 1 × 10^4
[4]; spleen, 1 mg/kg i.p. for 5 consecutive days, day 7 post-treatment
  Amastigotes per 500 nuclei: 200 ± 20
[5]
  CC50: > 230 µM
[6]; [8]
  Spleen: 140 ± 22 mg
  Suppression (%) of L. donovani amastigote burden in spleen: 52% and 52 ± 3 %
[6]; [9]
  Spleen: 131 ± 18 mg
  Suppression (%) of L. donovani amastigote burden in spleen: 64% and 64 ± 4 %
[6]; spleen, 2 mg/kg i.p., 2 or 4 doses at 5 days interval
  Reduction of parasite burden (CMA): 50%
[7]; CC50/IC50, intracellular
  Selectivity index (SI), GE1: 90 ± 10
[7]; GE1
  Fold larger cellular IC50 of pure BPQ than BPQ+NP: 4 fold
[7]; Leishmania donovani, Macrophage, intracellular amastigotes, 72 h, mean ± σ, n = 4, read-out: Cellular IC50, GE1
  IC50: 3.8 ± 0.4 µM
